# Experiments:
# [1] = biological target: T1, heat shock 70 kDa protein (HSP70) (Homo sapiens, UniProt P0DMV8); test: nDEL affinity selection against HSP70 (enrichment fold by deep sequencing); assay type: binding; conditions: ratio of normalized sequencing counts in presence and absence of target protein; DNA-encoded compound
# T1 construct: purchased Sino Biological 11660-H07H
# Method: (§1) The panning procedure for these two soluble protein were the same. 5 μg of target protein was mixed with Ni-charged MagBeads (GenScript, Cat. #L00295), 5 nM DEL library and 10 μg/mL Salmon sperm DNA. The final volume to adjusted to 100 μL. The mixture was rotated at room temperature for 1.5 h. After washing 5 times by phosphate-buffered saline supplemented 0.05% Tween-20 (PBST), the target protein binding chemical-DNA conjugations were eluted by heating at 95° C. for 10 min in 50 μL elution buffer (20 mM Tris, pH 7.4, 100 mM NaCl). The eluted DEL compounds were amplified by PCR using Takara PrimerSTAR Max DNA Polymerase (Takara, Cat. #R045A). Then the excess primers was removed by Hieff NGS™ smarter DNA clean beads (Yeasen, Cat. #12600E503) and evaluated on 4% DNA agarose gel. The amplified products was subjected for high-throughput sequencing using Illumina HiSeq X10 Analyzer.
# The combinatorial chemical library was constructed by three building block sub libraries, containing 6, 46 and 46 chemical building blocks respectively for the first, second and third building block libraries, respectively. Each building block was encoded by a 10-base pair (bp) DNA sequence. The natural products were encoded by a 30-bp DNA sequence, same length as the combinatorial chemical library DNA codes. […] After sequencing, the Illumina adaptors around the DNA coding sequences were trimmed by CLC genomics workbench version 12 (Qiagen). The left DNA coding sequences were 30 bp in length corresponding to the three DNA sequences of building blocks in 3 rounds of “split-pool” iterations. For each sample, the DNA coding sequences were mapped to the reference DNA encoding compound library. No mismatch was allowed in the mapping. The coding sequences were counted for all the compounds across different samples. The total read-counts of all the compounds in a given sample were calculated. The read-counts for each individual compound were divided by the total counts, multiplied with a constant of 100000.
# (§2) NormalizedCountCompoundM,SampleA=CountCompoundM,SampleA/(TotalCountSampleA)*100000
# The fold changes of each compound in the after-selection library comparing to the reference library were calculated.
# (§3) FoldChangeCompoundM=NormalizedCountCompoundM,SampleA/NormalizedCountCompoundM,Ref
# (§4) The hit criteria of nDEL screening take into account of both the normalized enrichment fold values (y-axis) and deep sequencing read counts (x-axis). Compounds with read counts less than 10 are considered unreliable, thus they are eliminated immediately from DEL before on-target screening. For each DEL library, a baseline enrichment fold is recorded in the absence of target protein, and a normalized enrichment fold value can be calculated for each DEL compound in the library. The cutoff for hits identification is based on a simplified statistical analysis of a highly diverse population of data, which is the sum of average value of enrichment-folds of the whole library (μ) plus 3 times of the standard deviation (σ).
# Two target proteins with different cellular locations and biophysical properties were used in nDEL screens. […] The known functional binders for these targets were included in nDEL as internal positive controls, e.g., oridonin for HSP70 and derivatives of olaparib (F001, F002, F003 and F006) for PARP-1. To account for the non-uniform distribution of DNA barcodes in nDEL, a blank screen of nDEL in the absence of target proteins but presence of immobilization matrix beads was carried out first and followed by deep-sequencing to establish the baseline distribution of barcodes in the library. All screening data were analyzed using the method described by Decurtins et al., Nat Protoc. […] The corresponding DNA sequence of each nDEL compound were tallied based on its sequencing counts. The enrichment fold is calculated as the ratio of normalized sequencing counts in the presence and absence of target protein.
# [2] = biological target: T2, poly [ADP-ribose] polymerase 1 (PARP1) (Homo sapiens, UniProt P09874); test: nDEL affinity selection against PARP-1 (enrichment fold by deep sequencing); assay type: binding; conditions: ratio of normalized sequencing counts in presence and absence of target protein; DNA-encoded compound
# T2 construct: purchased Sino Biological 11040-H08B
# Method: as §1, with “The his-tag fused recombinant human PARP-1 (Sino Biological, Cat. #11040-H08B) and human-HSP70 (Sino Biological, Cat. #11660-H07H) were obtained from commercial source. The panning” for “The panning”
# The combinatorial chemical library was constructed by three building block sub libraries, containing 6, 46 and 46 chemical building blocks respectively for the first, second and third building block libraries, respectively. Each building block was encoded by a 10-base pair (bp) DNA sequence. The natural products were encoded by a 30-bp DNA sequence, same length as the combinatorial chemical library DNA codes. All the possible combinations (combinatorial chemical compounds) between these three sub libraries were generated by an inhouse java program, which generated a reference DNA encoding library contains 12696 DNA encoding sequences. After sequencing, the Illumina adaptors around the DNA coding sequences were trimmed by CLC genomics workbench version 12 (Qiagen). The left DNA coding sequences were 30 bp in length corresponding to the three DNA sequences of building blocks in 3 rounds of “split-pool” iterations. For each sample, the DNA coding sequences were mapped to the reference DNA encoding compound library. No mismatch was allowed in the mapping. The coding sequences were counted for all the compounds across different samples. The total read-counts of all the compounds in a given sample were calculated. The read-counts for each individual compound were divided by the total counts, multiplied with a constant of 100000.
# as §2
# The fold changes of each compound in the after-selection library comparing to the reference library were calculated. For example, if SampleA and Reference library were compared, for the fold change of CompoundM was calculated as:
# as §3, §4
# Two target proteins with different cellular locations and biophysical properties were used in nDEL screens. […] The known functional binders for these targets were included in nDEL as internal positive controls, e.g., oridonin for HSP70 and derivatives of olaparib (F001, F002, F003 and F006) for PARP-1.
Structure (SMILES),"Enrichment Fold, HSP70 binder selection [1]","Fold Change, enrichment folds for PARP-1 binder selection [2]"
COc1cc2ccc(=O)oc2c(O)c1O [Fraxetin],3.3,2.01
O=C1C[C@@H](c2ccc(O[C@@H]3O[C@H](CO)[C@@H](O)[C@H](O)[C@H]3O)cc2)Oc2cc(O)ccc21 [Liquiritin],3.9,2.66
COc1cc2c(cc1O)CC[n+]1cc3c(OC)c(OC)ccc3cc1-2 [Jatrorrhizine],3.7,2.04

# — patent US20220017471A1, “FUNCTIONALITY INDEPENDENT LABELING OF ORGANIC COMPOUNDS” (Shanghai Tech University, priority 2018, published 2022)
